Source: PMC9176662, “Design, synthesis, molecular modeling and biological evaluation of novel Benzoxazole-Benzamide conjugates via a 2-Thioacetamido linker as potential anti-proliferative agents, VEGFR-2 inhibitors and apoptotic inducers” (Journal of Enzyme Inhibition and Medicinal Chemistry, 2022)

Tested on: HCT-116 cells
Assay: Anti-proliferative activity, SRB assay, HCT-116
Format: cell-based, human
Conditions: for IC50: SRB assay, 72 h exposure, mean ± SD of three separate experiments; for HCT-116 SI (selectivity index): ratio of IC50 for normal cells (WI-38) to IC50 for HCT-116
Text: Several of these derivatives were reported as acting as competitive inhibitors of different tyrosine kinases, with potent cytotoxic activity against various cell lines[58]^,[59]. […] Thus, in this study a novel series of benzoxazole-benzamide conjugates was initially evaluated for their potential anti-cancer activity against colon cancer cell line (HCT-116), breast cancer cell line (MCF-7) and normal human fibroblasts (WI-38), using the Sulforhodamine B colorimetric (SRB) assay.
2.1. Anti-proliferative activity against HCT-116 and MCF-7 human cancer cells lines.
The sulforhodamine B (SRB) assays were performed according to Skehan et al..
Briefly, exponentially growing cells were trypsinized, counted and seeded at the appropriate densities (5000 cells/100 μL/ well) into 96-well microtiter plates. Cells were incubated in a humidified atmosphere at 37 °C for 24 h. Then, the cells were exposed to the tested compounds at the desired concentrations (0.01, 0.1, 1, 10, and 100 μM) or to 1% dimethyl sulfoxide (DMSO) for 72 h. At the end of the treatment period, the media were removed, and the cells were fixed with 10% trichloroacetic acid at 4 °C for 1 h. Following, the cells were washed with tap water four times and incubated with SRB 0.4% for 30 min. Excess dye was removed by washing repeatedly with 1% (vol/vol) acetic acid. The protein-bound dye was dissolved in 10 mM Tris base solution for (optical density) OD determination at 510 nm using a Spectra Max plus Microplate Reader (Molecular Devices, CA). Cell viability was expressed relative to the untreated control cells. […]

Row | SMILES | IC50 (Homo sapiens, HCT-116, 72 h) [µM] | HCT-116 SI (selectivity index) | IC50 [µM]
1 | O=C(CSc1nc2cc(Cl)ccc2o1)Nc1ccc(C(=O)Nc2ccc(Cl)cc2)cc1 [Compound 11] | 12.2 ± 0.007 | 8.5 | –
2 | O=C(CSc1nc2ccccc2o1)Nc1ccc(C(=O)NC2CCCCC2)cc1 [Compound 1] | 7.2 ± 0.01 | 5.3 | 7.8 ± 0.015
